Data taken from publication PMC10176470, “Engaging a Non-catalytic Cysteine Residue Drives Potent and Selective Inhibition of Caspase-6” (Journal of the American Chemical Society, 2023).

Key:
Format in all cases: cell-based
[1] = molecular target: proteins of HEK293T cells transiently overexpressing caspase-6 (Homo sapiens, UniProt P11586); conditions: Probe; protein MTHFD1 P11586
[2] = molecular target: proteins of HEK293T cells transiently overexpressing caspase-6 (Homo sapiens, UniProt Q9UQE7); conditions: protein SMC3 (Q9UQE7), analysis C6
[3] = molecular target: proteins of HEK293T cells transiently overexpressing caspase-6 (Homo sapiens, UniProt P21333)
Sequence of proteins of HEK293T cells transiently overexpressing caspase-6 (Homo sapiens, UniProt P21333) (P21333 whole entry): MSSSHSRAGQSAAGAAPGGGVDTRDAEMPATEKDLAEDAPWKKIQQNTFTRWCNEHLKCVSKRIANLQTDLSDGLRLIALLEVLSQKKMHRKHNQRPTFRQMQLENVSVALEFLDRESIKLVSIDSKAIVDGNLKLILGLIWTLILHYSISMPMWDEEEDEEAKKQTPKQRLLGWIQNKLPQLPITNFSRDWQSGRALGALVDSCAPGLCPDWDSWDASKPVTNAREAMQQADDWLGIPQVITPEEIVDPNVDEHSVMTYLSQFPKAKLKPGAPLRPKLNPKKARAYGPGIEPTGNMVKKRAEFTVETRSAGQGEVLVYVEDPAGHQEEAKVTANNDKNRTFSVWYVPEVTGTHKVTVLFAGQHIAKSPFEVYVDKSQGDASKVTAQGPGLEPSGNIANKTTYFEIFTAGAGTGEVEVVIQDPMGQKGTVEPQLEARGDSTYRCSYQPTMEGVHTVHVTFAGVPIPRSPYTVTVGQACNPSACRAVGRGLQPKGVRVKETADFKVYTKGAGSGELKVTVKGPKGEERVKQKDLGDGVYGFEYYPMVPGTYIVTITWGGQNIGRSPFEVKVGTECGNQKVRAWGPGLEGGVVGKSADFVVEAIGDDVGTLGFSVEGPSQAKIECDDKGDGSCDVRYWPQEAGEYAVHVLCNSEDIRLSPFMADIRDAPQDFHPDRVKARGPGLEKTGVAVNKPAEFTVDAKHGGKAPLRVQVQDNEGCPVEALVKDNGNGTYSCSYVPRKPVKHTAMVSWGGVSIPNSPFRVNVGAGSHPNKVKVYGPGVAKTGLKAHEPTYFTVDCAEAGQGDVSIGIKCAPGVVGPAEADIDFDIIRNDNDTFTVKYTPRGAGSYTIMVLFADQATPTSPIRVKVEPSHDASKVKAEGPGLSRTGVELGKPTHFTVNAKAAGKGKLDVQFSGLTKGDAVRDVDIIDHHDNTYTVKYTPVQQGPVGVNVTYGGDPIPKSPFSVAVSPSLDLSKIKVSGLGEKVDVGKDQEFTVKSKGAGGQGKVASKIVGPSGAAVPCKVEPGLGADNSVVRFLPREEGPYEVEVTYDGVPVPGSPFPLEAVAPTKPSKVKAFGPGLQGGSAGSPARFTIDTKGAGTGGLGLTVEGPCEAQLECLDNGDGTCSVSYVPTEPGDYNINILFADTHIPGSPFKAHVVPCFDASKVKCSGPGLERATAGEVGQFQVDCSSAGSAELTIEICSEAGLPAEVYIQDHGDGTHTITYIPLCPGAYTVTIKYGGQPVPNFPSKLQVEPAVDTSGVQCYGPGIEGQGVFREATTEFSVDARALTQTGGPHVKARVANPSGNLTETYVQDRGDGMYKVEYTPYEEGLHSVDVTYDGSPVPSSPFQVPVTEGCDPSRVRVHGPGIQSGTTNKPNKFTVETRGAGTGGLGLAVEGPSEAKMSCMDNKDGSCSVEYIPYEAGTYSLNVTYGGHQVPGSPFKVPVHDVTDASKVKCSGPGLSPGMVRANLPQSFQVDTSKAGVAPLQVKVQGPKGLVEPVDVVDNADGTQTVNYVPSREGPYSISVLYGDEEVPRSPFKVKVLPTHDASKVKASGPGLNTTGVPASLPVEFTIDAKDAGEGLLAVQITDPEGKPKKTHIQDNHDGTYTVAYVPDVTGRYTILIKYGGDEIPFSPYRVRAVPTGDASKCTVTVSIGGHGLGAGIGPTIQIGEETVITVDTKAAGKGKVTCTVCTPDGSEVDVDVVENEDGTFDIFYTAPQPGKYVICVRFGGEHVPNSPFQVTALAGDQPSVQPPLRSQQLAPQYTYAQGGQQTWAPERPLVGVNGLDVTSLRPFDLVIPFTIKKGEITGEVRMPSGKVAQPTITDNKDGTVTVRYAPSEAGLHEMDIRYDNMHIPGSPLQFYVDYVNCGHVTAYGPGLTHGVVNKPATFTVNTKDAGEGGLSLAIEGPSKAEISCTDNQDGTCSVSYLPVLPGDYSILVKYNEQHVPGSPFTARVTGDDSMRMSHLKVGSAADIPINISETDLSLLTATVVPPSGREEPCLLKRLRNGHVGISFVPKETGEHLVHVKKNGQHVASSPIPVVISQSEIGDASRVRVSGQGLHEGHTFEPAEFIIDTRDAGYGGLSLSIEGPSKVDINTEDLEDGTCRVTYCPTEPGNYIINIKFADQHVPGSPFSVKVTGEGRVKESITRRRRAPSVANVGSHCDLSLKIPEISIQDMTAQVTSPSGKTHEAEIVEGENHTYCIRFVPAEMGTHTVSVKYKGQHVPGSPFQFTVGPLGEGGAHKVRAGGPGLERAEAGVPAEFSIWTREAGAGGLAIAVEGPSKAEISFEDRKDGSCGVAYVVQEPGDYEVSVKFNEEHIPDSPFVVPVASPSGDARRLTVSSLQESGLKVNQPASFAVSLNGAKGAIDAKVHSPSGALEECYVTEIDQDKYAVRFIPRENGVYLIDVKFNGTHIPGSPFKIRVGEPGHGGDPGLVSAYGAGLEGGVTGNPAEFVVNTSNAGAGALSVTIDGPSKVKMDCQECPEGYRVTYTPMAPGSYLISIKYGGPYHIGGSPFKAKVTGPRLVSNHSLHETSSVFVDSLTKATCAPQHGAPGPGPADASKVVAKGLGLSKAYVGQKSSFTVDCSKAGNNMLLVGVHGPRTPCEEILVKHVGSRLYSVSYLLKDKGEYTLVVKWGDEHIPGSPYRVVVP

[4] = molecular target: proteins of HEK293T cells transiently overexpressing caspase-6 (Homo sapiens, UniProt P62241); conditions: exp_ref Probe; protein RPS8 (P62241); analysis C6
[5] = molecular target: T1, proteins of HEK293T cells transiently overexpressing caspase-6 (Homo sapiens, UniProt Q14697); conditions: protein GANAB (Q14697)
T1 sequence (Q14697 29-944): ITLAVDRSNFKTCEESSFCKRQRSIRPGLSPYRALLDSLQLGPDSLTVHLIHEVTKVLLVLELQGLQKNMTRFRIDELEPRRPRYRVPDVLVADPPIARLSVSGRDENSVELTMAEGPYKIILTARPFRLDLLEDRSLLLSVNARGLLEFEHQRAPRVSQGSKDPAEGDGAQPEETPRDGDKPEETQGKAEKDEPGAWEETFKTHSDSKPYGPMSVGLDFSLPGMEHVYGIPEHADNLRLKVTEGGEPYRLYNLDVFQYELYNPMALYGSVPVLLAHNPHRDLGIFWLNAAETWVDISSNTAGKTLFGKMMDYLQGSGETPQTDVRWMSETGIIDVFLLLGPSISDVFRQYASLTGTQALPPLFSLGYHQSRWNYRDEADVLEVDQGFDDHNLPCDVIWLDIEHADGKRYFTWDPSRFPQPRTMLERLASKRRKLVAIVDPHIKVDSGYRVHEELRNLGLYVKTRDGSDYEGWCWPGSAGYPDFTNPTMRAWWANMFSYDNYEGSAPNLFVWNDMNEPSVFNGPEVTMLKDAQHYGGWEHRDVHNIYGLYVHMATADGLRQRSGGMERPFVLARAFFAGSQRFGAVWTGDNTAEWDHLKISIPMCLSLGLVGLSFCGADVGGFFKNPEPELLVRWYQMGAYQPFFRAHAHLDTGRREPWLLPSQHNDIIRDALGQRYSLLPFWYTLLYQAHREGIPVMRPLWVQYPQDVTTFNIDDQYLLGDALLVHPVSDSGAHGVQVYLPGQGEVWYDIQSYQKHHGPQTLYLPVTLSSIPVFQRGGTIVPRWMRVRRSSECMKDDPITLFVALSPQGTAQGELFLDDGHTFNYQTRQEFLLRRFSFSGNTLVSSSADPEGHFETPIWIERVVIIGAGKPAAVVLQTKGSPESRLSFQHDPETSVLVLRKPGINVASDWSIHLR

[6] = molecular target: proteins of HEK293T cells transiently overexpressing caspase-6 (Homo sapiens, UniProt Q9NNW7); conditions: Probe; protein TXNRD2 Q9NNW7
[7] = molecular target: proteins of HEK293T cells transiently overexpressing caspase-6 (Homo sapiens, UniProt P33991); conditions: exp_ref Probe; protein MCM4 (P33991); analysis C6
[8] = molecular target: proteins of HEK293T cells transiently overexpressing caspase-6 (Homo sapiens, UniProt P26641); conditions: exp_ref Probe; protein EEF1G (P26641); analysis C6
Sequence of proteins of HEK293T cells transiently overexpressing caspase-6 (Homo sapiens, UniProt P26641) (P26641 whole entry): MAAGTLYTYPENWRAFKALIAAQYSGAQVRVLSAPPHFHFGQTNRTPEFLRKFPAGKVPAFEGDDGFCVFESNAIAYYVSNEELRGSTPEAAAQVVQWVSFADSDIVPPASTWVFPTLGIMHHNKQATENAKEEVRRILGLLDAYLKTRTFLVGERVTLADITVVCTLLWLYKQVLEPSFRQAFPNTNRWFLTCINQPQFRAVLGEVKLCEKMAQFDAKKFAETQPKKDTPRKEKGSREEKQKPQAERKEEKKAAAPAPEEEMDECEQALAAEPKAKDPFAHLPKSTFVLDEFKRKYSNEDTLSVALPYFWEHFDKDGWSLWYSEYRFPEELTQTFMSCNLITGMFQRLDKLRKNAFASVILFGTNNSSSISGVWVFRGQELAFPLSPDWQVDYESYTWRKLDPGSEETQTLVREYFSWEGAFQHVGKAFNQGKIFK

[9] = molecular target: proteins of HEK293T cells transiently overexpressing caspase-6 (Homo sapiens, UniProt Q9NR30); conditions: exp_ref Probe; protein DDX21 (Q9NR30); analysis C6
[10] = molecular target: proteins of HEK293T cells transiently overexpressing caspase-6 (Homo sapiens, UniProt P20700); conditions: exp_ref Probe; protein LMNB1 (P20700); analysis C6
[11] = molecular target: proteins of HEK293T cells transiently overexpressing caspase-6 (Homo sapiens, UniProt Q00839); conditions: protein HNRNPU (Q00839)
Sequence of proteins of HEK293T cells transiently overexpressing caspase-6 (Homo sapiens, UniProt Q00839) (Q00839 whole entry): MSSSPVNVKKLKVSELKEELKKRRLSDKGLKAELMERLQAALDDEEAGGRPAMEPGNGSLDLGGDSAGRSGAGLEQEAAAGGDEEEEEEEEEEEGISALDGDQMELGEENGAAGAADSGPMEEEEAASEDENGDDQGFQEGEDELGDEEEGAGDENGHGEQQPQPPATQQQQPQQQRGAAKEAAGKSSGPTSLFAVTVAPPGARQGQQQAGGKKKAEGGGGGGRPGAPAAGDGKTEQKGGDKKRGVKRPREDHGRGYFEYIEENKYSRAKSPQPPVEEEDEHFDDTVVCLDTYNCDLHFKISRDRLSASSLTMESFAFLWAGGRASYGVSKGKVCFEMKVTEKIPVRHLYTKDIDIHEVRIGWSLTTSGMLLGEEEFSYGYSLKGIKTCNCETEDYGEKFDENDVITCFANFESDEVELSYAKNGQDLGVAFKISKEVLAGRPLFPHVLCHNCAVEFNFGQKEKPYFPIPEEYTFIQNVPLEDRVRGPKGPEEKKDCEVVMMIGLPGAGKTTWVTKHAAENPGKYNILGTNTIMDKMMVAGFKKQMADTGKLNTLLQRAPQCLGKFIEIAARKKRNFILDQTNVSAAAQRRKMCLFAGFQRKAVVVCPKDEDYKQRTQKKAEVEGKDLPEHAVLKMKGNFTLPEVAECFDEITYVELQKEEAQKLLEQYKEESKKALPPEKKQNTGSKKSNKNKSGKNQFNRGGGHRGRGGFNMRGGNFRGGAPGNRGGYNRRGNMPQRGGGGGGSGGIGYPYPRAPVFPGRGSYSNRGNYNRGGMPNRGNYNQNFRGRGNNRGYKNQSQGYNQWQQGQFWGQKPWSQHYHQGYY

[12] = molecular target: proteins of HEK293T cells transiently overexpressing caspase-6 (Homo sapiens, UniProt Q13200); conditions: protein PSMD2 (Q13200)
Sequence of proteins of HEK293T cells transiently overexpressing caspase-6 (Homo sapiens, UniProt Q13200) (Q13200 whole entry): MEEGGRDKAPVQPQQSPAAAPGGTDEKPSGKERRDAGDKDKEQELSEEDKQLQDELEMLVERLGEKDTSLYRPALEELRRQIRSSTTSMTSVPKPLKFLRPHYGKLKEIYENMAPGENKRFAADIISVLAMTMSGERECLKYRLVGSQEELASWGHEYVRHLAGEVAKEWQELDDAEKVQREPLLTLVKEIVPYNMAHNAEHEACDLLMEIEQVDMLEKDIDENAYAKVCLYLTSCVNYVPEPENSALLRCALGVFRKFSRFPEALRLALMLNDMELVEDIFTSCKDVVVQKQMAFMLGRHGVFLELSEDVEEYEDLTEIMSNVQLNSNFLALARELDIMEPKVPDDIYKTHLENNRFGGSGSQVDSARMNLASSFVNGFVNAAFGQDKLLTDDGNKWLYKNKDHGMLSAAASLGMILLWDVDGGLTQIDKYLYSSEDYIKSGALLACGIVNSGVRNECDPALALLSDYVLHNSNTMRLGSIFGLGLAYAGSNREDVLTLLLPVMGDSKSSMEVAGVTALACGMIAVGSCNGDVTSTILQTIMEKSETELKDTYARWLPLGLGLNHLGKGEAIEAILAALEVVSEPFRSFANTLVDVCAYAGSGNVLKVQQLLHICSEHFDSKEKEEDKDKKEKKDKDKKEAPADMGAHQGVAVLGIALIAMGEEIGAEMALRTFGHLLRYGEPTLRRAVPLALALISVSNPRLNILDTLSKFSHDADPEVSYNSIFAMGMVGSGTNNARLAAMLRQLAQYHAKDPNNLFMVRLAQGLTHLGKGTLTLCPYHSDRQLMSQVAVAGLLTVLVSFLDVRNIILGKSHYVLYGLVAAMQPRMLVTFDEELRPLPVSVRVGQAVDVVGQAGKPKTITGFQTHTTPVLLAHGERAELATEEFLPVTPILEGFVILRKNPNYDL

[13] = molecular target: proteins of HEK293T cells transiently overexpressing caspase-6 (Homo sapiens, UniProt P84090); conditions: Probe; protein ERH P84090
Sequence of proteins of HEK293T cells transiently overexpressing caspase-6 (Homo sapiens, UniProt P84090) (P84090 whole entry): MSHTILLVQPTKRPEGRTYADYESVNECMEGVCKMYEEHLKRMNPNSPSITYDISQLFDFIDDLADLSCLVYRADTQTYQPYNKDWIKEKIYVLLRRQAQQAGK

[14] = molecular target: proteins of HEK293T cells transiently overexpressing caspase-6 (Homo sapiens, UniProt P62249); conditions: exp_ref Probe; protein RPS16 (P62249); analysis C6
[15] = molecular target: proteins of HEK293T cells transiently overexpressing caspase-6 (Homo sapiens, UniProt P14314); conditions: Probe; protein PRKCSH P14314
[16] = molecular target: proteins of HEK293T cells transiently overexpressing caspase-6 (Homo sapiens, UniProt Q92841); conditions: exp_ref Probe; protein DDX17 (Q92841); analysis C6
[17] = molecular target: proteins of HEK293T cells transiently overexpressing caspase-6 (Homo sapiens, UniProt P61313)

C#CCOc1ccc([C@@H]2C[C@@H](C(=O)Nc3ccc(OC(F)(F)F)cc3)CN(S(=O)(=O)C=C)C2)cc1 (relative stereo) [13-t]
enrich.exp.med [1]: -1.178 | enrich.exp.med.lin ([2]; Expt Probe): 14.5893 | enrich.exp.med.log2 ([2]; Expt Probe): 3.867 | enrich.exp.med ([2]; exp_ref Probe): 3.867 | enrich.exp.med ([3]; Probe, protein FLNA P21333): -0.9107 | enrich.exp.med.lin ([3]; protein FLNA (P21333)): 0.5319 | enrich.exp.med.log2 ([3]; protein FLNA (P21333)): -0.9107 | enrich.exp.med [4]: 0.3889 | enrich.exp.med ([5]; exp_ref Probe, analysis C6): -0.2903 | enrich.exp.med.lin [5]: 0.8177 | enrich.exp.med.log2 [5]: -0.2903 | enrich.exp.med [6]: -0.4404 | enrich.exp.med [7]: 1.006 | enrich.exp.med [8]: 0.5675 | enrich.exp.med [9]: 0.5934 | enrich.exp.med [10]: -0.2652 | enrich.exp.med ([11]; exp_ref Probe, analysis C6): 0.5889 | enrich.exp.med.lin [11]: 1.5041 | enrich.exp.med.log2 [11]: 0.5889 | enrich.exp.med ([12]; exp_ref Probe, analysis C6): 1.027 | enrich.exp.med.lin [12]: 2.037 | enrich.exp.med.log2 [12]: 1.027 | enrich.exp.med [13]: -0.8193 | enrich.exp.med [14]: -0.2776 | enrich.exp.med [15]: -0.8366 | enrich.exp.med [16]: 0.3365 | enrich.exp.med ([17]; Probe, protein RPL15 P61313): -0.9576 | enrich.exp.med.lin ([17]; protein RPL15 (P61313)): 0.5149 | enrich.exp.med.log2 ([17]; protein RPL15 (P61313)): -0.9576
